Measurements from patent US8933123B2, “Polymorphic forms of O-desmethyl-venlafaxine succinate” (Cadila Healthcare Limited, priority 2010, dated 2015).

Assay: Storage stability of packed crystalline forms (water content and polymorphic conversion by X-ray powder diffraction)
Assay type: physicochemical
From the text: The crystalline form of O-desmethyl-venlafaxine succinate obtained in example-5 or example-6 were stored under nitrogen atmosphere and packed in a non-permeable bag tied with a thread, keeping primary packing inside a black color polyethylene bag containing oxygen busters and sealing it, placing above the non-permeable bag inside a triple laminated bag containing oxygen busters and sealing it, and placing the sealed triple laminated bag inside a closed high density polyethylene (HDPE) container.

[1] = storage for 3 months at 25° C. and a relative humidity of 60%
[2] = storage for 3 months at 40° C. and a relative humidity of 75%

CN(C)CC(c1ccc(O)cc1)C1(O)CCCCC1.O=C(O)CCC(=O)O (centres unmarked) [Form “Z1”, O-desmethyl-venlafaxine succinate]
crystalline Form-I or Form-II detected by X-ray powder diffraction after storage [1]: no detectable amount of crystalline Form-I or Form-II | water content after storage [1]: ≤ 1.5% | crystalline Form-I or Form-II detected by X-ray powder diffraction after storage [2]: no detectable amount of crystalline Form-I or Form-II | water content after storage [2]: ≤ 1.5%

CN(C)CC(c1ccc(O)cc1)C1(O)CCCCC1.O=C(O)CCC(=O)O (centres unmarked) [Form “Z”, O-desmethyl-venlafaxine succinate]
crystalline Form-I or Form-II detected by X-ray powder diffraction after storage [1]: no detectable amount of crystalline Form-I or Form-II | water content after storage [1]: ≤ 3.0% | crystalline Form-I or Form-II detected by X-ray powder diffraction after storage [2]: no detectable amount of crystalline Form-I or Form-II | water content after storage [2]: ≤ 3.0%
